For 6 compounds, C50, Cell survival and Ratio results are on record in ChEMBL document CHEMBL1130992, “Effect of side chain location in (2-aminoethyl)-aminomethyl-2-phenylquinolines as antitumor agents” (1998).

Experiment [1] relates to Nucleic Acid. Kind of experiment: Compound was evaluated for DNA-binding affinity using calf-thymus DNA. In kind it is nucleic-acid assay. Particulars: Bos taurus.
Experiment [2] concerns Nucleic Acid. Kind of experiment: Compound was evaluated for DNA-binding affinity using poly[d(AT)]2. It is filed as nucleic-acid assay.
Experiment [3] has as its system Nucleic Acid. The experiment is described as follows: Compound was evaluated for DNA-binding affinity using poly[d(GC)]2. In kind it is nucleic-acid assay.
Experiment [4] has as its system HeLa. The experiment is described as follows: Compound was tested for antitumor activity against the human uterine cancer cell (HeLa) line at concentration of […] x 10 e-5 M. In kind it is functional.
Experiment [5] deals with HeLa. Kind of experiment: Compound was tested for antitumor activity against the human uterine cancer cell (HeLa) line at concentration of 1 x 10 e-6 M. In kind it is functional.
In experiment [6] the test system is HeLa. Kind of experiment: Compound was tested for antitumor activity against the human uterine cancer cell (HeLa) line at concentration of 1 x 10 e-7 M. In kind it is functional.
Experiment [7] has as its system HeLa. Kind of experiment: Compound was tested for antitumor activity against the human uterine cancer cell (HeLa) line at concentration of […] x 10 e-4 M. It is filed as functional.
A short description of experiment [8]: Ratio of C50(GC) to that of C50(AT).

Turning to `Cl.Cl.Cl.NCCNCc1ccc(-c2ccc3ccccc3n2)cc1`, the values for the C50 in the experiment with Nucleic Acid [1], in the experiment with Nucleic Acid [2] and with Nucleic Acid [3] were 7 µM, 7 µM and 11 µM, respectively. For the same compound, the Cell survival in the experiment on HeLa [4] was 65%; in the experiment with HeLa [5] it was 87%; in the experiment with HeLa [6], 79%; in the experiment on HeLa [7] it was 3%. Besides, in experiment [8], the Ratio worked out at 1.6.
Take `Cl.Cl.Cl.NCCNCc1ccc2ccc(-c3ccccc3)nc2c1`: the C50 was 11 µM in the experiment on Nucleic Acid [1], 11 µM in the experiment with Nucleic Acid [2] and 16 µM in the experiment on Nucleic Acid [3]. The Cell survival in the experiment on HeLa [4] came out at 31%; in the experiment on HeLa [5], 70%; with HeLa [6], 98%; with HeLa [7], 3%. In experiment [8], the Ratio stood at 1.5.
As to `Cl.Cl.Cl.NCCNCc1c2ccccc2nc2ccccc12`, the Cell survival is given as 71% in the experiment on HeLa [4], 94% in the experiment on HeLa [5], 100% in the experiment on HeLa [6] and 3% with HeLa [7].
Regarding `Cl.Cl.Cl.NCCNCc1cccc2ccc(-c3ccccc3)nc12`, the C50 in the experiment on Nucleic Acid [1] was determined as 2.1 µM; in the experiment on Nucleic Acid [2] it was 5.2 µM; with Nucleic Acid [3] it was 5.6 µM. Further, the Cell survival in the experiment on HeLa [4] is listed as 7%; in the experiment with HeLa [5], 65%; with HeLa [6], 77%; in the experiment with HeLa [7], 0%. Moreover, the Ratio in experiment [8] was determined as 1.1.
Consider `Cl.Cl.Cl.NCCNCc1cc(-c2ccccc2)nc2ccccc12`, for which the C50 is 30 µM in the experiment on Nucleic Acid [1], 33 µM in the experiment with Nucleic Acid [2] and 48 µM with Nucleic Acid [3]. The Cell survival in the experiment with HeLa [4] was found to be 52%; in the experiment with HeLa [5], 62%; in the experiment on HeLa [6], 74%; in the experiment with HeLa [7], 8%. Besides, the Ratio in experiment [8] was determined as 1.5.
Consider `Cl.Cl.NCCNCc1ccc2nc(-c3ccccc3)ccc2c1`, for which the Cell survival in the experiment on HeLa [4] was determined as 44%; with HeLa [5], 82%; in the experiment on HeLa [6], 85%; with HeLa [7], 0%.
